Laboratory results published in the CheMixHub viscosity set.
± gives the uncertainty stated by the source.

Experiment: xn = mol fraction of the nth substance listed

CCCCCCO + CCCCCC
Details	viscosity [mPa·s]
293.15 K, 100 kPa, x1 = 0.0277	0.3397 ± 0.0052
293.15 K, 100 kPa, x1 = 0.05	0.3453 ± 0.0053
293.15 K, 100 kPa, x1 = 0.1	0.3793 ± 0.0055
293.15 K, 100 kPa, x1 = 0.1976	0.4607 ± 0.006
293.15 K, 100 kPa, x1 = 0.2999	0.5855 ± 0.0069
293.15 K, 100 kPa, x1 = 0.3999	0.7701 ± 0.0086
293.15 K, 100 kPa, x1 = 0.5	1.068 ± 0.011
293.15 K, 100 kPa, x1 = 0.6002	1.481 ± 0.016
293.15 K, 100 kPa, x1 = 0.7	1.971 ± 0.021
293.15 K, 100 kPa, x1 = 0.8	2.71 ± 0.029
293.15 K, 100 kPa, x1 = 0.9096	3.927 ± 0.044
298.15 K, 100 kPa, x1 = 0.0277	0.3247 ± 0.0052
298.15 K, 100 kPa, x1 = 0.05	0.329 ± 0.0052
298.15 K, 100 kPa, x1 = 0.1	0.3597 ± 0.0054
298.15 K, 100 kPa, x1 = 0.1976	0.433 ± 0.0058
298.15 K, 100 kPa, x1 = 0.2999	0.5506 ± 0.0067
298.15 K, 100 kPa, x1 = 0.3999	0.7084 ± 0.0081
298.15 K, 100 kPa, x1 = 0.5	0.9696 ± 0.011
298.15 K, 100 kPa, x1 = 0.6002	1.328 ± 0.014
298.15 K, 100 kPa, x1 = 0.7	1.765 ± 0.019
298.15 K, 100 kPa, x1 = 0.8	2.381 ± 0.026
298.15 K, 100 kPa, x1 = 0.9096	3.398 ± 0.038
298.15 K, 101.33 kPa, x2 = 0.1327	3.088 ± 0.024
298.15 K, 101.33 kPa, x2 = 0.1854	2.578 ± 0.02
298.15 K, 101.33 kPa, x2 = 0.2308	2.207 ± 0.017
298.15 K, 101.33 kPa, x2 = 0.3137	1.632 ± 0.013
298.15 K, 101.33 kPa, x2 = 0.4404	1.072 ± 0.009
298.15 K, 101.33 kPa, x2 = 0.4841	0.941 ± 0.008
298.15 K, 101.33 kPa, x2 = 0.6117	0.648 ± 0.006
298.15 K, 101.33 kPa, x2 = 0.7122	0.501 ± 0.005
298.15 K, 101.33 kPa, x2 = 0.8046	0.408 ± 0.004
298.15 K, 101.33 kPa, x2 = 0.8997	0.338 ± 0.004
298.15 K, 101.33 kPa, x2 = 0.9493	0.309 ± 0.003
303 K, 101.33 kPa, x1 = 0.0995	0.3348 ± 0.013
303 K, 101.33 kPa, x1 = 0.1996	0.4052 ± 0.013
303 K, 101.33 kPa, x1 = 0.2995	0.5115 ± 0.015
303 K, 101.33 kPa, x1 = 0.4012	0.6522 ± 0.016
303 K, 101.33 kPa, x1 = 0.5004	0.8535 ± 0.019
303 K, 101.33 kPa, x1 = 0.6	1.167 ± 0.025
303 K, 101.33 kPa, x1 = 0.6983	1.608 ± 0.036
303 K, 101.33 kPa, x1 = 0.7965	2.139 ± 0.051
303 K, 101.33 kPa, x1 = 0.8984	2.867 ± 0.075
303.15 K, 100 kPa, x1 = 0.0277	0.3116 ± 0.0051
303.15 K, 100 kPa, x1 = 0.05	0.3153 ± 0.0051
303.15 K, 100 kPa, x1 = 0.1	0.343 ± 0.0053
303.15 K, 100 kPa, x1 = 0.1976	0.4107 ± 0.0057
303.15 K, 100 kPa, x1 = 0.2999	0.5173 ± 0.0065
303.15 K, 100 kPa, x1 = 0.3999	0.6524 ± 0.0076
303.15 K, 100 kPa, x1 = 0.5	0.885 ± 0.0098
303.15 K, 100 kPa, x1 = 0.6002	1.194 ± 0.013
303.15 K, 100 kPa, x1 = 0.7	1.569 ± 0.017
303.15 K, 100 kPa, x1 = 0.8	2.091 ± 0.023
303.15 K, 100 kPa, x1 = 0.9096	2.945 ± 0.033
303.15 K, 101.33 kPa, x2 = 0.0954	2.883 ± 0.026
303.15 K, 101.33 kPa, x2 = 0.1918	2.18 ± 0.02
303.15 K, 101.33 kPa, x2 = 0.2892	1.6 ± 0.015
303.15 K, 101.33 kPa, x2 = 0.3876	1.19 ± 0.011
303.15 K, 101.33 kPa, x2 = 0.487	0.8951 ± 0.0087
303.15 K, 101.33 kPa, x2 = 0.5874	0.6793 ± 0.0068
303.15 K, 101.33 kPa, x2 = 0.689	0.5301 ± 0.0054
303.15 K, 101.33 kPa, x2 = 0.7915	0.4188 ± 0.0045
303.15 K, 101.33 kPa, x2 = 0.8952	0.3557 ± 0.0039
308.15 K, 100 kPa, x1 = 0.0277	0.2979 ± 0.005
308.15 K, 100 kPa, x1 = 0.05	0.3006 ± 0.0051
308.15 K, 100 kPa, x1 = 0.1	0.3256 ± 0.0052
308.15 K, 100 kPa, x1 = 0.1976	0.3877 ± 0.0056
308.15 K, 100 kPa, x1 = 0.2999	0.4855 ± 0.0062
308.15 K, 100 kPa, x1 = 0.3999	0.6019 ± 0.0072
308.15 K, 100 kPa, x1 = 0.5	0.8102 ± 0.0092
308.15 K, 100 kPa, x1 = 0.6002	1.08 ± 0.012
308.15 K, 100 kPa, x1 = 0.7	1.406 ± 0.015
308.15 K, 100 kPa, x1 = 0.8	1.847 ± 0.021
308.15 K, 100 kPa, x1 = 0.9096	2.566 ± 0.029
313 K, 101.33 kPa, x1 = 0.0995	0.3081 ± 0.012
313 K, 101.33 kPa, x1 = 0.1996	0.3673 ± 0.013
313 K, 101.33 kPa, x1 = 0.2995	0.4576 ± 0.014
313 K, 101.33 kPa, x1 = 0.4012	0.5618 ± 0.015
313 K, 101.33 kPa, x1 = 0.5004	0.725 ± 0.017
313 K, 101.33 kPa, x1 = 0.6	0.9609 ± 0.021
313 K, 101.33 kPa, x1 = 0.6983	1.287 ± 0.027
313 K, 101.33 kPa, x1 = 0.7965	1.673 ± 0.036
313 K, 101.33 kPa, x1 = 0.8984	2.185 ± 0.05
313.15 K, 100 kPa, x1 = 0.0277	0.2857 ± 0.005
313.15 K, 100 kPa, x1 = 0.05	0.2883 ± 0.005
313.15 K, 100 kPa, x1 = 0.1	0.3109 ± 0.0051
313.15 K, 100 kPa, x1 = 0.1976	0.3694 ± 0.0055
313.15 K, 100 kPa, x1 = 0.2999	0.4503 ± 0.006
313.15 K, 100 kPa, x1 = 0.3999	0.555 ± 0.0069
313.15 K, 100 kPa, x1 = 0.5	0.7462 ± 0.0086
313.15 K, 100 kPa, x1 = 0.6002	0.9846 ± 0.011
313.15 K, 100 kPa, x1 = 0.7	1.272 ± 0.014
313.15 K, 100 kPa, x1 = 0.8	1.644 ± 0.018
313.15 K, 100 kPa, x1 = 0.9096	2.251 ± 0.026
313.15 K, 101.33 kPa, x2 = 0.0954	2.219 ± 0.02
313.15 K, 101.33 kPa, x2 = 0.1918	1.71 ± 0.016
313.15 K, 101.33 kPa, x2 = 0.2892	1.295 ± 0.012
313.15 K, 101.33 kPa, x2 = 0.3876	0.9896 ± 0.0095
313.15 K, 101.33 kPa, x2 = 0.487	0.7581 ± 0.0075
313.15 K, 101.33 kPa, x2 = 0.5874	0.5894 ± 0.006
313.15 K, 101.33 kPa, x2 = 0.689	0.4749 ± 0.005
313.15 K, 101.33 kPa, x2 = 0.7915	0.3791 ± 0.0041
313.15 K, 101.33 kPa, x2 = 0.8952	0.3285 ± 0.0037
318.15 K, 100 kPa, x1 = 0.0277	0.2746 ± 0.0049
318.15 K, 100 kPa, x1 = 0.05	0.2766 ± 0.005
318.15 K, 100 kPa, x1 = 0.1	0.297 ± 0.0051
318.15 K, 100 kPa, x1 = 0.1976	0.3511 ± 0.0054
318.15 K, 100 kPa, x1 = 0.2999	0.4266 ± 0.0059
318.15 K, 100 kPa, x1 = 0.3999	0.5178 ± 0.0066
318.15 K, 100 kPa, x1 = 0.5	0.6859 ± 0.0081
318.15 K, 100 kPa, x1 = 0.6002	0.8985 ± 0.01
318.15 K, 100 kPa, x1 = 0.7	1.155 ± 0.013
318.15 K, 100 kPa, x1 = 0.8	1.48 ± 0.017
318.15 K, 100 kPa, x1 = 0.9096	1.987 ± 0.023
323 K, 101.33 kPa, x1 = 0.0995	0.2787 ± 0.012
323 K, 101.33 kPa, x1 = 0.1996	0.3303 ± 0.013
323 K, 101.33 kPa, x1 = 0.2995	0.4051 ± 0.013
323 K, 101.33 kPa, x1 = 0.4012	0.5023 ± 0.014
323 K, 101.33 kPa, x1 = 0.5004	0.6113 ± 0.015
323 K, 101.33 kPa, x1 = 0.6	0.7992 ± 0.018
323 K, 101.33 kPa, x1 = 0.6983	1.049 ± 0.022
323 K, 101.33 kPa, x1 = 0.7965	1.34 ± 0.027
323 K, 101.33 kPa, x1 = 0.8984	1.721 ± 0.036
323.15 K, 100 kPa, x2 = 0.25	1.211 ± 0.069
323.15 K, 101.33 kPa, x2 = 0.0954	1.682 ± 0.015
323.15 K, 101.33 kPa, x2 = 0.1918	1.32 ± 0.012
323.15 K, 101.33 kPa, x2 = 0.2892	1.02 ± 0.01
323.15 K, 101.33 kPa, x2 = 0.3876	0.8098 ± 0.0079
323.15 K, 101.33 kPa, x2 = 0.487	0.6263 ± 0.0063
323.15 K, 101.33 kPa, x2 = 0.5874	0.5103 ± 0.0053
323.15 K, 101.33 kPa, x2 = 0.689	0.404 ± 0.0043
323.15 K, 101.33 kPa, x2 = 0.7915	0.3396 ± 0.0038
323.15 K, 101.33 kPa, x2 = 0.8952	0.2844 ± 0.0033
